# Assay results: patent US9249129B2, “Morpholino substituted urea derivatives as mTOR inhibitors” (CELLZOME LIMITED, priority 2010, dated 2016)
# pIC50: −log10 of the molar value.
# Experiments:
# Assay in all cases: kinobeads assay with mass spectrometry detection of kinases (kinase selectivity profile)
# Assay type in all cases: binding
# kinases (kinome) [1] = target: T1, kinases (kinome) (Homo sapiens, UniProt O00444); settings: PLK4 (Other), IPI00410344
# T1 construct: determined in kinobeads assays with mass spectrometry detection of kinases as described previously; endogenous in cells; host or cells: cell lysate
# T1 sequence (O00444 1-970): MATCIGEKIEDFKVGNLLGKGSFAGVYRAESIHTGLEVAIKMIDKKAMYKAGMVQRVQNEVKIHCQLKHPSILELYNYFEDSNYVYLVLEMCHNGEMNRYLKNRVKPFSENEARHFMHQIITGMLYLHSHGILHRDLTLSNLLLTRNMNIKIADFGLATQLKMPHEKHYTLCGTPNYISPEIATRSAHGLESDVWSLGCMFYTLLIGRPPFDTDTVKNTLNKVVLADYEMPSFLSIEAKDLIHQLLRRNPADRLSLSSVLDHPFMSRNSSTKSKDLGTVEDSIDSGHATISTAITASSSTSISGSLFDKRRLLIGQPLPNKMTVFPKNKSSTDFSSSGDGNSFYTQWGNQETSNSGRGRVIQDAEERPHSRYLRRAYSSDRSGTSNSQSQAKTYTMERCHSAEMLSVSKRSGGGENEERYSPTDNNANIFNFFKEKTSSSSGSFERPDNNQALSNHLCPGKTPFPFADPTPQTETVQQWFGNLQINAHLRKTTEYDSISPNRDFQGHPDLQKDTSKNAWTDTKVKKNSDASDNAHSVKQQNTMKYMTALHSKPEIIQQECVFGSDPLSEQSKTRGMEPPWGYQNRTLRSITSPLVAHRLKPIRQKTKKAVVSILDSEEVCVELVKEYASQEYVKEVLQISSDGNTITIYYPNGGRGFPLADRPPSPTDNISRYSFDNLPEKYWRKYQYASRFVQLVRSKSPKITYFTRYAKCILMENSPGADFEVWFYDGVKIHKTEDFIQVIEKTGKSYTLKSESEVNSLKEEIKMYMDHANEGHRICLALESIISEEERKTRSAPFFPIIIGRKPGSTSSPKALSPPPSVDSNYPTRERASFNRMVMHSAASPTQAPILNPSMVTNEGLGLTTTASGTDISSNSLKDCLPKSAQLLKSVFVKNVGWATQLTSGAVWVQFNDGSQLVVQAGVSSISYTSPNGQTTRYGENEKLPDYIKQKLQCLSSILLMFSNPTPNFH
# From the text: (§1) The protein kinase complement of the human genome (the kinome) was described previously (Manning et al., 2002. Science 298(5600):1912-1934). Sequence accession numbers are defined by the International Protein Index (IPI) (Kersey et al., 2004. Proteomics 4(7):1985-1988).
# kinases (kinome) [2] = target: T2, kinases (kinome) (Homo sapiens, UniProt O43353); settings: RIPK2 (TKL), IPI00021917
# T2 construct: determined in kinobeads assays with mass spectrometry detection of kinases as described previously; endogenous in cells; host or cells: cell lysate
# From the text: as §1
# kinases (kinome) [3] = target: T3, kinases (kinome) (Homo sapiens, UniProt P06241); settings: FYN (TK), IPI00219012
# T3 construct: determined in kinobeads assays with mass spectrometry detection of kinases as described previously; endogenous in cells; host or cells: cell lysate
# T3 sequence (P06241 whole entry): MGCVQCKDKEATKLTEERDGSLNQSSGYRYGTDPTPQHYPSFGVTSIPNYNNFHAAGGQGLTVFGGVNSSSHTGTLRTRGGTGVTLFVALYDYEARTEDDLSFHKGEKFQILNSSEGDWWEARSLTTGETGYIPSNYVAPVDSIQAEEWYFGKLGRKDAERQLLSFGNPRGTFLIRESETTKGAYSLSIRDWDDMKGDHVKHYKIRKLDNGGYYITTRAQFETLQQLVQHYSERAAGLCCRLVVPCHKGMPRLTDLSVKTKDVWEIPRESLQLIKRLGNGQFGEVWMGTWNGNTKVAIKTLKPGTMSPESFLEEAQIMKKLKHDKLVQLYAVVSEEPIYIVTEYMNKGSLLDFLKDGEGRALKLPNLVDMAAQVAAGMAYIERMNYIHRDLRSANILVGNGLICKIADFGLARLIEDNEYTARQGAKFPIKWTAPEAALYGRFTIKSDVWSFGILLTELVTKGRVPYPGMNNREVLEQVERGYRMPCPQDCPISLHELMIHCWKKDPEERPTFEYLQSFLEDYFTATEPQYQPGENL
# From the text: as §1
# kinases (kinome) [4] = target: T4, kinases (kinome) (Homo sapiens, UniProt P28482); settings: Erk2 (CMGC), IPI00003479
# T4 construct: determined in kinobeads assays with mass spectrometry detection of kinases as described previously; endogenous in cells; host or cells: cell lysate
# T4 sequence (P28482 whole entry): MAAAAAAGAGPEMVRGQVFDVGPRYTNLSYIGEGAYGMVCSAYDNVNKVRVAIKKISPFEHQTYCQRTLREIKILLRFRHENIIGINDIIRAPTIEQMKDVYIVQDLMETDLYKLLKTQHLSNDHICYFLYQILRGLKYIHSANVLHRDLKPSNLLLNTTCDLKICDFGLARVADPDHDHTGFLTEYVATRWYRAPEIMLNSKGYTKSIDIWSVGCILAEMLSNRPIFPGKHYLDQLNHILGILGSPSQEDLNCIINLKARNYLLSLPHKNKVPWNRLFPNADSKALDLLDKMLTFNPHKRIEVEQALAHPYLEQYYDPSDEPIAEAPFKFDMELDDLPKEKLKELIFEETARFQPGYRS
# From the text: as §1
# kinases (kinome) [5] = target: T5, kinases (kinome) (Homo sapiens, UniProt P30291); settings: Wee1 (Other), IPI00025830
# T5 construct: determined in kinobeads assays with mass spectrometry detection of kinases as described previously; endogenous in cells; host or cells: cell lysate
# T5 sequence (P30291 whole entry): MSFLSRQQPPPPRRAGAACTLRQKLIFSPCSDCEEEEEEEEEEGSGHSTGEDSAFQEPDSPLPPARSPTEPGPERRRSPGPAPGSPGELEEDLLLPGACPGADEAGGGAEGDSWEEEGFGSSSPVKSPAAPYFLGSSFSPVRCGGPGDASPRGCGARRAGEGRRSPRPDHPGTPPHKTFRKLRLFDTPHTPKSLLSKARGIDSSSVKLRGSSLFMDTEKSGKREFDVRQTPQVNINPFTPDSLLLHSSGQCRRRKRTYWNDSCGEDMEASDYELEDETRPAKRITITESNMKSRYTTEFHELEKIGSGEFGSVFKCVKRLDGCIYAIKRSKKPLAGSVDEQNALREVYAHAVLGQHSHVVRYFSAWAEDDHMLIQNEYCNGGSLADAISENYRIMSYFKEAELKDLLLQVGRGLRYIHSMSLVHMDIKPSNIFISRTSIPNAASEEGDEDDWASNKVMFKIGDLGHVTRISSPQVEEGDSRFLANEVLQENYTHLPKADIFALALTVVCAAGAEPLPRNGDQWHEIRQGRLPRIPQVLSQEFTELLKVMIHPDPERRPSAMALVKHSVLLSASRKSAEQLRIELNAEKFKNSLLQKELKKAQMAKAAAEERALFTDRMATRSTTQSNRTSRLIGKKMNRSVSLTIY
# From the text: as §1
# kinases (kinome) [6] = target: T6, kinases (kinome) (Homo sapiens, UniProt P36897); settings: TGFbR1 (TKL), IPI00005733
# T6 construct: determined in kinobeads assays with mass spectrometry detection of kinases as described previously; endogenous in cells; host or cells: cell lysate
# T6 sequence (P36897 34-503): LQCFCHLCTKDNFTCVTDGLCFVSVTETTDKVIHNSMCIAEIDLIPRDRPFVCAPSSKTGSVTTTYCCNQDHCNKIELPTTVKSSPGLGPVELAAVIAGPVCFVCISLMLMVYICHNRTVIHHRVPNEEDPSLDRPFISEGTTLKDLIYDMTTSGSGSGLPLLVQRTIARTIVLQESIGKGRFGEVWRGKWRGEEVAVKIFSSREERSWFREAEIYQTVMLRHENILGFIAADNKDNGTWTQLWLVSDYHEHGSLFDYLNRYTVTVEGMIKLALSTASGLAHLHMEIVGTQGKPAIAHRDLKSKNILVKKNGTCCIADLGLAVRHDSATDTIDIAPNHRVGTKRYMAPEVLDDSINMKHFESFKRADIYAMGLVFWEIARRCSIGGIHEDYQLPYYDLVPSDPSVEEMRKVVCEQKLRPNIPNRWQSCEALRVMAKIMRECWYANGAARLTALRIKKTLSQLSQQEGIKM
# From the text: as §1
# kinases (kinome) [7] = target: T7, kinases (kinome) (Homo sapiens, UniProt P41240); settings: CSK (TK), IPI00013212
# T7 construct: determined in kinobeads assays with mass spectrometry detection of kinases as described previously; endogenous in cells; host or cells: cell lysate
# From the text: as §1
# kinases (kinome) [8] = target: T8, kinases (kinome) (Homo sapiens, UniProt P42338); settings: PIK3Cb (Lipid Kinase), IPI00031388
# T8 construct: determined in kinobeads assays with mass spectrometry detection of kinases as described previously; endogenous in cells; host or cells: cell lysate
# From the text: as §1
# kinases (kinome) [9] = target: T9, kinases (kinome) (Homo sapiens, UniProt P42345); settings: mTOR (Atypical), IPI00031410; 0.1 μM ranges
# T9 construct: determined in kinobeads assays with mass spectrometry detection of kinases as described previously; endogenous in cells; host or cells: cell lysate
# From the text: as §1
# kinases (kinome) [10] = target: T10, kinases (kinome) (Homo sapiens, UniProt P45984); settings: JNK2 (CMGC), IPI00303550
# T10 construct: determined in kinobeads assays with mass spectrometry detection of kinases as described previously; endogenous in cells; host or cells: cell lysate
# T10 sequence (P45984 whole entry): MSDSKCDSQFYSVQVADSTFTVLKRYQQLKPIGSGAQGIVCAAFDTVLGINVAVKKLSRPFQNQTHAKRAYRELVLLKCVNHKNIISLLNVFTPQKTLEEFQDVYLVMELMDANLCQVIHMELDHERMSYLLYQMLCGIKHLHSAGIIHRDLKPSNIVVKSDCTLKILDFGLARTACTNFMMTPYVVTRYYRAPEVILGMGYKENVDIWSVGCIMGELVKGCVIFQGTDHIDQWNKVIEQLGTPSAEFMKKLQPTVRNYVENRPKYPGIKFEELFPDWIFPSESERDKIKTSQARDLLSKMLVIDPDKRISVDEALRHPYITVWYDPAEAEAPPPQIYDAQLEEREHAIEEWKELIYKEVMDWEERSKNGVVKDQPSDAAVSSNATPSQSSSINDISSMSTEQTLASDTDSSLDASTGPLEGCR
# From the text: as §1
# kinases (kinome) [11] = target: T11, kinases (kinome) (Homo sapiens, UniProt P49840); settings: GSK3A (CMGC), IPI00292228
# T11 construct: determined in kinobeads assays with mass spectrometry detection of kinases as described previously; endogenous in cells; host or cells: cell lysate
# T11 sequence (P49840 whole entry): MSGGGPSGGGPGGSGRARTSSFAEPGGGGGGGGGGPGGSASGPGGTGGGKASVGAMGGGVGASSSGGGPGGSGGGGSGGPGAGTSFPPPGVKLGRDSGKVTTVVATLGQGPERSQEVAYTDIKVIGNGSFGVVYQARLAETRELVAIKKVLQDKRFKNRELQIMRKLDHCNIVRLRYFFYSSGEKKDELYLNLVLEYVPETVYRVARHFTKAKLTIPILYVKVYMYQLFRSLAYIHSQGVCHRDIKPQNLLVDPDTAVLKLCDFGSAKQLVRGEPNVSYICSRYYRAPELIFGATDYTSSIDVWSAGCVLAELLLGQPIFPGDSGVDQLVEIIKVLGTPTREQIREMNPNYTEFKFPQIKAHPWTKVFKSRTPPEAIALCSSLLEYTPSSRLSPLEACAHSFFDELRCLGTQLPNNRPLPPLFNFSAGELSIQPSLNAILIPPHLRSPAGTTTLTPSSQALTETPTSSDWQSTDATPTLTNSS
# From the text: as §1
# kinases (kinome) [12] = target: T12, kinases (kinome) (Homo sapiens, UniProt P50613); settings: CDK7 (CMGC), IPI00000685
# T12 construct: determined in kinobeads assays with mass spectrometry detection of kinases as described previously; endogenous in cells; host or cells: cell lysate
# T12 sequence (P50613 whole entry): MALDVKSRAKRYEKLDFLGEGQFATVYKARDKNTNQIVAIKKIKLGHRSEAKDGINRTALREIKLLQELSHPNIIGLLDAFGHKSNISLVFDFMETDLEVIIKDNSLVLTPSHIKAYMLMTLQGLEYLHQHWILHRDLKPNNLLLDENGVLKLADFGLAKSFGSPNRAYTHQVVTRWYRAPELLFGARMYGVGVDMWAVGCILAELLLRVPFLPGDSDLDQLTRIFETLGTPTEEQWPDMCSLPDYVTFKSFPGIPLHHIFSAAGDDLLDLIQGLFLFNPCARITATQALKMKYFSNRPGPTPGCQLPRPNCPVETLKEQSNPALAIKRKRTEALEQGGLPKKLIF
# From the text: as §1
# kinases (kinome) [13] = target: T13, kinases (kinome) (Homo sapiens, UniProt P53671); settings: LIMK2 (TKL), IPI00025698
# T13 construct: determined in kinobeads assays with mass spectrometry detection of kinases as described previously; endogenous in cells; host or cells: cell lysate
# T13 sequence (P53671 whole entry): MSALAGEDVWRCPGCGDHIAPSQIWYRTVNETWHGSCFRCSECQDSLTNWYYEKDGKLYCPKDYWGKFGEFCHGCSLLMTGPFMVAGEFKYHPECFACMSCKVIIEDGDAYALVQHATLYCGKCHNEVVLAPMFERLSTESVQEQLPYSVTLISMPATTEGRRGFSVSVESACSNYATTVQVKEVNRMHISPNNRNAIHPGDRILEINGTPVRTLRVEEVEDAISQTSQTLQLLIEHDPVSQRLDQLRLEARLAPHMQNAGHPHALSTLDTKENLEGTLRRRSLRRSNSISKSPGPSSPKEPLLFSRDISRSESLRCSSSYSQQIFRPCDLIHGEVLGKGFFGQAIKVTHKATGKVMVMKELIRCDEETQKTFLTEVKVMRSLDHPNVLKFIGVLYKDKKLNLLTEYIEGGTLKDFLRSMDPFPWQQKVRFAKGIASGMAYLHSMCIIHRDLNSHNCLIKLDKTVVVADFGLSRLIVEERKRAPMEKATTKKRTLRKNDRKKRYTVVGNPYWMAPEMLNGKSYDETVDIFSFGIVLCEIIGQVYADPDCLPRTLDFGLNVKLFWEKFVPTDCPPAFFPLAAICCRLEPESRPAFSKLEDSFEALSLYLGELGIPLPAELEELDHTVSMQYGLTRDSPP
# From the text: as §1
# kinases (kinome) [14] = target: T14, kinases (kinome) (Homo sapiens, UniProt Q13315); settings: ATM (Atypical), IPI00298306
# T14 construct: determined in kinobeads assays with mass spectrometry detection of kinases as described previously; endogenous in cells; host or cells: cell lysate
# From the text: as §1
# kinases (kinome) [15] = target: T15, kinases (kinome) (Homo sapiens, UniProt Q2M2I8); settings: AAK1 (Other), IPI00916402
# T15 construct: determined in kinobeads assays with mass spectrometry detection of kinases as described previously; endogenous in cells; host or cells: cell lysate
# T15 sequence (Q2M2I8 whole entry): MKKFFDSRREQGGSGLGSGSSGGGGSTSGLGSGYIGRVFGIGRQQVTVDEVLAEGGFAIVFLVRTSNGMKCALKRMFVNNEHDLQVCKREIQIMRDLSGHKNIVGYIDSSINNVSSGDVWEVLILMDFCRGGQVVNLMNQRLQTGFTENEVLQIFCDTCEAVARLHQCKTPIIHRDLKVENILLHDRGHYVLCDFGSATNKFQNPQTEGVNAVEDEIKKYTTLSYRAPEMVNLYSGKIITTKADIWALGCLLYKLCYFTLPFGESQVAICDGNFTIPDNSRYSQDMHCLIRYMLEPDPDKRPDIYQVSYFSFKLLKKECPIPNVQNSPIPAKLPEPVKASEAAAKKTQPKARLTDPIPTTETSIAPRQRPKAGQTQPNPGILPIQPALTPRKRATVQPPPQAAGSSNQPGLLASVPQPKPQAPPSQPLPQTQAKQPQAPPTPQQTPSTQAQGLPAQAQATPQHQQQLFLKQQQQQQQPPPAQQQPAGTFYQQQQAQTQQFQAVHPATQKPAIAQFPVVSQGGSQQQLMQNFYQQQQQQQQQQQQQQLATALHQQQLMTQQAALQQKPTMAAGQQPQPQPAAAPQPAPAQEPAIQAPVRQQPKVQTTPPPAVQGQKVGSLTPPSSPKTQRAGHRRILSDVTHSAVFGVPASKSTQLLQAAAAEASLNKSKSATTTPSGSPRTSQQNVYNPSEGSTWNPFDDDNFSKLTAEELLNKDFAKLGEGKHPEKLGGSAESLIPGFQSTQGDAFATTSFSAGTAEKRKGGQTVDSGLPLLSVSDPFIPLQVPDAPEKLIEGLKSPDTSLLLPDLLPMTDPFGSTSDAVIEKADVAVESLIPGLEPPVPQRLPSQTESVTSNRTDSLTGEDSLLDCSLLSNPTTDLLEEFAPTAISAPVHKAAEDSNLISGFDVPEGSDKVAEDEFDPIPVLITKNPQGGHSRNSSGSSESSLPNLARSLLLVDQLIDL
# From the text: as §1
# kinases (kinome) [16] = target: T16, kinases (kinome) (Homo sapiens, UniProt Q9BVS4); settings: RIOK2 (Atypical), IPI00306406
# T16 construct: determined in kinobeads assays with mass spectrometry detection of kinases as described previously; endogenous in cells; host or cells: cell lysate
# T16 sequence (Q9BVS4 whole entry): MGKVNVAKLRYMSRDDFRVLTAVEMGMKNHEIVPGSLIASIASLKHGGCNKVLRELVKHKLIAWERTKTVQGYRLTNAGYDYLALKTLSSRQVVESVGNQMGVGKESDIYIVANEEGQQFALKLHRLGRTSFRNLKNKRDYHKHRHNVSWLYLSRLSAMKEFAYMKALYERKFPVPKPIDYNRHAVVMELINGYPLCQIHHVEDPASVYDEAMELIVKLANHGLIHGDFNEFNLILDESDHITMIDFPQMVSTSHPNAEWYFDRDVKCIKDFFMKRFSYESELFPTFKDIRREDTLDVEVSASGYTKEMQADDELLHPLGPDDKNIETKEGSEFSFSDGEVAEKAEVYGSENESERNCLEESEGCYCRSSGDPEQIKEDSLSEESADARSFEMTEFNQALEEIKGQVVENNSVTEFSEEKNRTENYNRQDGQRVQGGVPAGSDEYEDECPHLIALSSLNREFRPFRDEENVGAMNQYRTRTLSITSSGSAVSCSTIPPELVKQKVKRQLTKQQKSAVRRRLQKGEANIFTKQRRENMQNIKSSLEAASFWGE
# From the text: as §1
pIC50 (kinases (kinome) [1]),pIC50 (kinases (kinome) [2]),pIC50 (kinases (kinome) [3]),pIC50 (kinases (kinome) [4]),pIC50 (kinases (kinome) [5]),pIC50 (kinases (kinome) [6]),pIC50 (kinases (kinome) [7]),pIC50 (kinases (kinome) [8]),pIC50 (kinases (kinome) [9]),pIC50 (kinases (kinome) [10]),pIC50 (kinases (kinome) [11]),pIC50 (kinases (kinome) [12]),pIC50 (kinases (kinome) [13]),pIC50 (kinases (kinome) [14]),pIC50 (kinases (kinome) [15]),pIC50 (kinases (kinome) [16]),Structure (SMILES)
< 5.00,< 5.00,< 5.00,< 5.00,< 5.00,< 5.00,< 5.00,< 5.00,6.70 to 7.00,< 5.00,< 5.00,< 5.00,< 5.00,< 5.00,< 5.00,< 5.00,"C[C@H]1COCCN1c1nc(-c2ccc(NC(=O)N[C@H]3CCC[C@@H]3O)cc2)cc(-c2cc(F)ccc2S(C)(=O)=O)n1 [Example 76, 1-(4-(6-(5-fluoro-2-(methylsulfonyl)phenyl)-2-((S)-3-methylmorpholino)pyrimidin-4-yl)phenyl)-3-((1S,2S)-2-hydroxycyclopentyl)urea]"
< 5.00,< 5.00,< 5.00,< 5.00,< 5.00,< 5.00,< 5.00,< 5.00,6.52 to 6.70,< 5.00,< 5.00,< 5.00,< 5.00,< 5.00,< 5.00,< 5.00,"C[C@H]1COCCN1c1nc(-c2ccc(NC(=O)NC3CC3)cc2)cc(-c2cccnc2S(C)(=O)=O)n1 [Example 46, (S)-1-cyclopropyl-3-(4-(2-(3-methylmorpholino)-6-(2-(methylsulfonyl)pyridin-3-yl)pyrimidin-4-yl)phenyl)urea]"
< 5.00,< 5.00,< 5.00,< 5.00,< 5.00,< 5.00,< 5.00,< 5.00,6.70 to 7.00,< 5.00,< 5.00,< 5.00,< 5.00,< 5.00,< 5.00,< 5.00,"C[C@H]1COCCN1c1cc(-c2ccccn2)nc(-c2ccc(NC(=O)NCCO)cc2)n1 [Example 43, (S)-1-(2-hydroxyethyl)-3-(4-(4-(3-methylmorpholino)-6-(pyridin-2-yl)pyrimidin-2-yl)phenyl)urea]"
< 5.00,< 5.00,< 5.00,< 5.00,< 5.00,< 5.00,< 5.00,< 5.00,6.70 to 7.00,< 5.00,< 5.00,< 5.00,< 5.00,< 5.00,< 5.00,< 5.00,"C[C@H]1COCCN1c1nc(-c2ccc(NC(=O)NC3CC3)cc2)cc(-c2cc(F)ccc2S(C)(=O)=O)n1 [Example 40, (S)-1-cyclopropyl-3-(4-(6-(5-fluoro-2-(methylsulfonyl)phenyl)-2-(3-methylmorpholino)pyrimidin-4-yl)phenyl)urea]"

# Further lines, the molecule ahead of its results:
Structure (SMILES),pIC50 (kinases (kinome) [1]),pIC50 (kinases (kinome) [2]),pIC50 (kinases (kinome) [3]),pIC50 (kinases (kinome) [4]),pIC50 (kinases (kinome) [5]),pIC50 (kinases (kinome) [6]),pIC50 (kinases (kinome) [7]),pIC50 (kinases (kinome) [8]),pIC50 (kinases (kinome) [9]),pIC50 (kinases (kinome) [10]),pIC50 (kinases (kinome) [11]),pIC50 (kinases (kinome) [12]),pIC50 (kinases (kinome) [13]),pIC50 (kinases (kinome) [14]),pIC50 (kinases (kinome) [15]),pIC50 (kinases (kinome) [16])
"C[C@H]1COCCN1c1nc(-c2ccc(NC(=O)NC3CC3)cc2)cc(-c2ccccc2S(C)(=O)=O)n1 [Example 4, (S)-1-cyclopropyl-3-(4-(2-(3-methylmorpholino)-6-(2-(methylsulfonyl)phenyl)pyrimidin-4-yl)phenyl)urea]",< 5.00,< 5.00,< 5.00,< 5.00,< 5.00,< 5.00,< 5.00,< 5.00,6.40 to 6.52,< 5.00,< 5.00,< 5.00,< 5.00,< 5.00,< 5.00,< 5.00
"C[C@H]1COCCN1c1cc(-c2ccccc2S(C)(=O)=O)nc(-c2ccc(NC(=O)NC3CC3)cc2)n1 [Example 6, (S)-1-cyclopropyl-3-(4-(4-(3-methylmorpholino)-6-(2-(methylsulfonyl)phenyl)pyrimidin-2-yl)phenyl)urea]",< 5.00,< 5.00,< 5.00,< 5.00,< 5.00,< 5.00,< 5.00,< 5.00,6.70 to 7.00,< 5.00,< 5.00,< 5.00,< 5.00,< 5.00,< 5.00,< 5.00
"CCNC(=O)Nc1ccc(-c2cc(-c3ccccc3C#N)nc(N3CCOC[C@@H]3C)n2)cc1 [Example 8, (S)-1-(4-(6-(2-cyanophenyl)-2-(3-methylmorpholino)pyrimidin-4-yl)phenyl)-3-ethylurea]",< 5.00,< 5.00,< 5.00,< 5.00,< 5.00,< 5.00,< 5.00,< 5.00,6.70 to 7.00,< 5.00,< 5.00,< 5.00,< 5.00,< 5.00,< 5.00,< 5.00
